From patent US12564630B2, “Vaccine adjuvants” (priority 2020, dated 2026)

Key:
[1] = human trials; cited from earlier work
[2] = Chemisorption to aluminum hydroxide ("Alum") quantified by liquid chromatography-mass spectrometry; assay type: physicochemical
Text: Chemisorption was quantified by liquid chromatography-mass spectrometry. When appropriate ratios of the adjuvant and aluminum hydroxide are used, all of the adjuvant is bound to alum. This ensures delivery of the adjuvant to the draining lymph nodes, and minimizes systemic exposure. It is important not to exceed the ratio to avoid the presence of excess small molecule adjuvant. […] The ratio can range from 1:10 (mg Compound 1:mL aluminum hydroxide gel) to 10:1, or from 1:8 to 8:1, or 1:5 to 5:1; or 1:2 to 2:1, or about 1:1.
The Compound is chemisorbed onto aluminum hydroxide to form an adjuvant complex referred to herein as (“Alhydroxiquim-II”). The trihydroxybenzyl appendage of the adjuvant Compound 1 ligand-exchanges with the hydroxyl groups of aluminum hydroxide (chemisorption). When appropriate ratios of the adjuvant and aluminum hydroxide are used, all of the adjuvant is bound to alum. This ensures delivery of the adjuvant to the draining lymph nodes, and minimizes systemic exposure. It is important not to exceed the ratio to avoid the presence of excess small molecule adjuvant.
Chemisorption was quantified by liquid chromatography-mass spectrometry.

[3] = 10 mg of the small-molecule to 10 mL of standard Alhydrogel (10 mg of aluminum content/mL)

| Structure (SMILES) | tolerability (systemic side effects including fever, headache, malaise, and myalgia) [1] | binding to aluminum hydroxide gel (Alhydrogel) [2, 3] | concentrations of free small molecule [2, 3] | chemisorption to “Alum” ([2]; quantified by LC-MS, FIG. 2) |
| --- | --- | --- | --- | --- |
| CCOCc1nc2c(N)nc3ccccc3c2n1CC(C)(C)O [Resiquimod] | poorly tolerated |  |  |  |
| CCCCc1nc2c(N)nc3ccccc3c2n1Cc1cccc(CNC(=O)c2cc(O)c(O)c(O)c2)c1 [Compound 1, N-(3-((4-amino-2-butyl-1H-imidazo[4,5-c]quinolin-1-yl)methyl)benzyl)-3,4,5-trihydroxybenzamide] |  | complete binding | undetectable | saturable |
